Assay results published in patent US12291518B2, “Thyroid hormone receptor agonists and use thereof” (Eccogene Inc., priority 2020, dated 2025).

Assays:
[1] = target: T1, THR beta-LBD (Homo sapiens, UniProt P10828); test: THR-β Coactivator Peptide Recruitment Assay (LanthaScreen TR-FRET); format: biochemical; details: TR-FRET coactivator recruitment, THR beta-LBD 0.5 nM; for EC50: read-out: THRβ EC50
T1 construct: THR beta-LBD (the final concentration is 0.5 nM) was added to the 384-well assay plate; purchased Invitrogen PV4686
T1 sequence (P10828 217-461 limits assumed): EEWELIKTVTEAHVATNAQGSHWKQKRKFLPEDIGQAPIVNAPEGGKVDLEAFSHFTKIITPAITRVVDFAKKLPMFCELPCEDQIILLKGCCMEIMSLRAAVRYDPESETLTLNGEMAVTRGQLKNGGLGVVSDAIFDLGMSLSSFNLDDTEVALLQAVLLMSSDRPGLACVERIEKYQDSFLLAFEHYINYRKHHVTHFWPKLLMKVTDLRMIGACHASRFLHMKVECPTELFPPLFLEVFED
In short: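 Agonist-driven coactivator recruitment read as a 520/495 nm TR-FRET emission ratio after 2 h at room temperature. Final concentrations: THR beta-LBD 0.5 nM, fluorescein-SRC2-2 peptide 0.1 nM, terbium anti-GST antibody 2 nM. EC50 from four-parameter dose-response fitting.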

[2] = target: T2, THR alpha-LBD (Homo sapiens, UniProt P10827); test: THR-α Coactivator Peptide Recruitment Assay (LanthaScreen TR-FRET); format: biochemical; details: TR-FRET coactivator recruitment, THR alpha-LBD 0.25 nM; for EC50: read-out: THRα EC50
T2 construct: except that THR alpha-LBD of a final concentration 0.25 nM was used; purchased Invitrogen PV4687
T2 sequence (P10827 163-410 isoform P10827-2 limits assumed, other chains not shown): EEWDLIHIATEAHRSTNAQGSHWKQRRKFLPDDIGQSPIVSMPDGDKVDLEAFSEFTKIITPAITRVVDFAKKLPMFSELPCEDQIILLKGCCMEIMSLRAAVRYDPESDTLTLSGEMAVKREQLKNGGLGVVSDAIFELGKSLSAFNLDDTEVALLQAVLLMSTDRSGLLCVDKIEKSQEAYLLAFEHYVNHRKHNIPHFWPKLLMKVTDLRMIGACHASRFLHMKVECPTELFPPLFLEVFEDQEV
In short: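 TR-FRET coactivator recruitment with THR alpha-LBD at 0.25 nM final, Fluorescein-SRC2-2 peptide 0.1 nM and Tb-labeled anti-GST antibody 2 nM; 2 h incubation at room temperature. 520/495 nm emission ratio fitted to a four-parameter sigmoidal curve to give EC50.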

Compound: O=c1[nH]c(=O)n(-c2cc(Cl)c(Oc3ccc(O)c(S(=O)(=O)NC[C@H]4C[C@@H](O)C4)c3)c(Cl)c2)nc1C(F)F [Compound 44, 5-(2,6-dichloro-4-(6-(difluoromethyl)-3,5-dioxo-4,5-dihydro-1,2,4-triazin-2(3H)-yl)phenoxy)-2-hydroxy-N-(((1s,3s)-3-hydroxycyclobutyl)methyl)benzenesulfonamide]
- THRβ Emax [1]: B (75~90)
- EC50 [1]: 2 to 20 nM
- THRα Emax [2]: A (85~110)
- EC50 [2]: 2 to 200 nM

Compound: C[C@H](CO)NS(=O)(=O)c1cc(Oc2c(Cl)cc(-n3nc(C(F)F)c(=O)[nH]c3=O)cc2Cl)ccc1O [Compound 45, (R)-5-(2,6-dichloro-4-(6-(difluoromethyl)-3,5-dioxo-4,5-dihydro-1,2,4-triazin-2(3H)-yl)phenoxy)-2-hydroxy-N-(1-hydroxypropan-2-yl)benzenesulfonamide]
- THRβ Emax [1]: B (75~90)
- EC50 [1]: < 2 nM
- THRα Emax [2]: A (85~110)
- EC50 [2]: 2 to 200 nM

Compound: CS(=O)(=O)N[C@H]1CCN(S(=O)(=O)c2cc(Oc3c(Cl)cc(-n4nc(C(F)F)c(=O)[nH]c4=O)cc3Cl)ccc2O)C1 [Compound 46, N-[(3S)-1-[5-[2,6-dichloro-4-[6-(difluoromethyl)-3,5-dioxo-1,2,4-triazin-2-yl]phenoxy]-2-hydroxy-phenyl]sulfonylpyrrolidin-3-yl]methanesulfonamide]
- THRβ Emax [1]: B (75~90)
- EC50 [1]: < 2 nM
- THRα Emax [2]: B (40~85)
- EC50 [2]: 2 to 200 nM

Compound: CS(=O)(=O)N[C@@H]1CCN(S(=O)(=O)c2cc(Oc3c(Cl)cc(-n4nc(C(F)F)c(=O)[nH]c4=O)cc3Cl)ccc2O)C1 [Compound 47, (R)-N-(1-((5-(2,6-dichloro-4-(6-(difluoromethyl)-3,5-dioxo-4,5-dihydro-1,2,4-triazin-2(3H)-yl)phenoxy)-2-hydroxyphenyl)sulfonyl)pyrrolidin-3-yl)methanesulfonamide]
- THRβ Emax [1]: C (<75)
- EC50 [1]: 2 to 20 nM
- THRα Emax [2]: B (40~85)
- EC50 [2]: 2 to 200 nM

Compound: O=c1[nH]c(=O)n(-c2cc(Cl)c(Oc3ccc(O)c(S(=O)(=O)N[C@@H]4CCN(S(=O)(=O)C5CC5)C4)c3)c(Cl)c2)nc1C(F)F [Compound 48, (R)-N-(1-(cyclopropylsulfonyl)pyrrolidin-3-yl)-5-(2,6-dichloro-4-(6-(difluoromethyl)-3,5-dioxo-4,5-dihydro-1,2,4-triazin-2(3H)-yl)phenoxy)-2-hydroxybenzenesulfonamide]
- THRβ Emax [1]: C (<75)
- EC50 [1]: 2 to 20 nM
- THRα Emax [2]: B (40~85)
- EC50 [2]: 200 to 1000 nM

Compound: O=c1[nH]c(=O)n(-c2cc(Cl)c(Oc3ccc(O)c(S(=O)(=O)N[C@H]4CCN(S(=O)(=O)C5CC5)C4)c3)c(Cl)c2)nc1C(F)F [Compound 49, (S)-N-(1-(cyclopropylsulfonyl)pyrrolidin-3-yl)-5-(2,6-dichloro-4-(6-(difluoromethyl)-3,5-dioxo-4,5-dihydro-1,2,4-triazin-2(3H)-yl)phenoxy)-2-hydroxybenzenesulfonamide]
- THRβ Emax [1]: C (<75)
- EC50 [1]: 2 to 20 nM
- THRα Emax [2]: C (<40)
- EC50 [2]: 200 to 1000 nM

Compound: CS(=O)(=O)N1CC[C@H](NS(=O)(=O)c2cc(Oc3c(Cl)cc(-n4nc(C(F)F)c(=O)[nH]c4=O)cc3Cl)ccc2O)C1 [Compound 50, (S)-5-(2,6-dichloro-4-(6-(difluoromethyl)-3,5-dioxo-4,5-dihydro-1,2,4-triazin-2(3H)-yl)phenoxy)-2-hydroxy-N-(1-(methylsulfonyl)pyrrolidin-3-yl)benzenesulfonamide]
- THRβ Emax [1]: C (<75)
- EC50 [1]: 2 to 20 nM
- THRα Emax [2]: B (40~85)
- EC50 [2]: 200 to 1000 nM

Compound: CS(=O)(=O)N1CC[C@@H](NS(=O)(=O)c2cc(Oc3c(Cl)cc(-n4nc(C(F)F)c(=O)[nH]c4=O)cc3Cl)ccc2O)C1 [Compound 51, (R)-5-(2,6-dichloro-4-(6-(difluoromethyl)-3,5-dioxo-4,5-dihydro-1,2,4-triazin-2(3H)-yl)phenoxy)-2-hydroxy-N-(1-(methylsulfonyl)pyrrolidin-3-yl)benzenesulfonamide]
- THRβ Emax [1]: C (<75)
- EC50 [1]: 2 to 20 nM
- THRα Emax [2]: B (40~85)
- EC50 [2]: 200 to 1000 nM

Compound: O=C(C1CC1)N1CC(NS(=O)(=O)c2cc(Oc3c(Cl)cc(-n4nc(C(F)F)c(=O)[nH]c4=O)cc3Cl)ccc2O)C1 [Compound 52, N-(1-(cyclopropanecarbonyl)azetidin-3-yl)-5-(2,6-dichloro-4-(6-(difluoromethyl)-3,5-dioxo-4,5-dihydro-1,2,4-triazin-2(3H)-yl)phenoxy)-2-hydroxybenzenesulfonamide]
- THRβ Emax [1]: B (75~90)
- EC50 [1]: 20 to 100 nM
- THRα Emax [2]: B (40~85)
- EC50 [2]: > 1000 nM

Compound: CN(C)C(=O)N1CC(NS(=O)(=O)c2cc(Oc3c(Cl)cc(-n4nc(C(F)F)c(=O)[nH]c4=O)cc3Cl)ccc2O)C1 [Compound 53, 3-((5-(2,6-dichloro-4-(6-(difluoromethyl)-3,5-dioxo-4,5-dihydro-1,2,4-triazin-2(3H)-yl)phenoxy)-2-hydroxyphenyl)sulfonamido)-N,N-dimethylazetidine-1-carboxamide]
- THRβ Emax [1]: B (75~90)
- EC50 [1]: 2 to 20 nM
- THRα Emax [2]: B (40~85)
- EC50 [2]: > 1000 nM

Compound: CS(=O)(=O)N1CC(NS(=O)(=O)c2cc(Oc3c(Cl)cc(-n4nc(C(F)F)c(=O)[nH]c4=O)cc3Cl)ccc2O)C1 [Compound 54, 5-(2,6-dichloro-4-(6-(difluoromethyl)-3,5-dioxo-4,5-dihydro-1,2,4-triazin-2(3H)-yl)phenoxy)-2-hydroxy-N-(1-(methylsulfonyl)azetidin-3-yl)benzenesulfonamide]
- THRβ Emax [1]: C (<75)
- EC50 [1]: 20 to 100 nM
- THRα Emax [2]: B (40~85)
- EC50 [2]: 200 to 1000 nM

Compound: CCS(=O)(=O)N[C@H]1CCN(S(=O)(=O)c2cc(Oc3c(Cl)cc(-n4nc(C(F)F)c(=O)[nH]c4=O)cc3Cl)ccc2O)C1 [Compound 55, (S)-N-(1-((5-(2,6-dichloro-4-(6-(difluoromethyl)-3,5-dioxo-4,5-dihydro-1,2,4-triazin-2(3H)-yl)phenoxy)-2-hydroxyphenyl)sulfonyl)pyrrolidin-3-yl)ethanesulfonamide]
- THRβ Emax [1]: B (75~90)
- EC50 [1]: < 2 nM
- THRα Emax [2]: B (40~85)
- EC50 [2]: 2 to 200 nM

Compound: O=C(N[C@H]1CCN(S(=O)(=O)c2cc(Oc3c(Cl)cc(-n4nc(C(F)F)c(=O)[nH]c4=O)cc3Cl)ccc2O)C1)C1CC1 [Compound 56, (S)-N-(1-((5-(2,6-dichloro-4-(6-(difluoromethyl)-3,5-dioxo-4,5-dihydro-1,2,4-triazin-2(3H)-yl)phenoxy)-2-hydroxyphenyl)sulfonyl)pyrrolidin-3-yl)cyclopropanecarboxamide]
- THRβ Emax [1]: C (<75)
- EC50 [1]: < 2 nM
- THRα Emax [2]: B (40~85)
- EC50 [2]: 2 to 200 nM

Compound: CNC(=O)N1CC(NS(=O)(=O)c2cc(Oc3c(Cl)cc(-n4nc(C(F)F)c(=O)[nH]c4=O)cc3Cl)ccc2O)C1 [Compound 57, 3-((5-(2,6-dichloro-4-(6-(difluoromethyl)-3,5-dioxo-4,5-dihydro-1,2,4-triazin-2(3H)-yl)phenoxy)-2-hydroxyphenyl)sulfonamido)-N-methylazetidine-1-carboxamide]
- THRβ Emax [1]: C (<75)
- EC50 [1]: 20 to 100 nM
- THRα Emax [2]: C (<40)
- EC50 [2]: > 1000 nM

Compound: NC(=O)CNS(=O)(=O)c1cc(Oc2c(Cl)cc(-n3nc(C(F)F)c(=O)[nH]c3=O)cc2Cl)ccc1O [Compound 58, 2-((5-(2,6-dichloro-4-(6-(difluoromethyl)-3,5-dioxo-4,5-dihydro-1,2,4-triazin-2 (3H)-yl)phenoxy)-2-hydroxyphenyl)sulfonamido)acetamide]
- THRβ Emax [1]: B (75~90)
- EC50 [1]: < 2 nM
- THRα Emax [2]: A (85~110)
- EC50 [2]: 2 to 200 nM

Compound: O=C(CNS(=O)(=O)c1cc(Oc2c(Cl)cc(-n3nc(C(F)F)c(=O)[nH]c3=O)cc2Cl)ccc1O)NC1CC1 [Compound 59, N-cyclopropyl-2-((5-(2,6-dichloro-4-(6-(difluoromethyl)-3,5-dioxo-4,5-dihydro-1,2,4-triazin-2(3H)-yl)phenoxy)-2-hydroxyphenyl)sulfonamido)acetamide]
- THRβ Emax [1]: A (90~110)
- EC50 [1]: 2 to 20 nM
- THRα Emax [2]: B (40~85)
- EC50 [2]: 200 to 1000 nM

Compound: CNC(=O)CNS(=O)(=O)c1cc(Oc2c(Cl)cc(-n3nc(C(F)F)c(=O)[nH]c3=O)cc2Cl)ccc1O [Compound 60, 2-((5-(2,6-dichloro-4-(6-(difluoromethyl)-3,5-dioxo-4,5-dihydro-1,2,4-triazin-2(3H)-yl)phenoxy)-2-hydroxyphenyl)sulfonamido)-N-methylacetamide]
- THRβ Emax [1]: B (75~90)
- EC50 [1]: 2 to 20 nM
- THRα Emax [2]: B (40~85)
- EC50 [2]: 2 to 200 nM

Compound: CNC(=O)[C@H]1C[C@H](NS(=O)(=O)c2cc(Oc3c(Cl)cc(-n4nc(C(F)F)c(=O)[nH]c4=O)cc3Cl)ccc2O)C1 [Compound 61, (1r,3r)-3-((5-(2,6-dichloro-4-(6-(difluoromethyl)-3,5-dioxo-4,5-dihydro-1,2,4-triazin-2(3H)-yl)phenoxy)-2-hydroxyphenyl)sulfonamido)-N-methylcyclobutane-1-carboxamide]
- THRβ Emax [1]: B (75~90)
- EC50 [1]: 2 to 20 nM
- THRα Emax [2]: B (40~85)
- EC50 [2]: > 1000 nM
